Where two headings read alike, the source gives them in different places.
Legend:
[1] = test system: SULT2B1b-mediated CS production in E0771-SULT cells; assay: CS production inhibitory effect in E0771-SULT cells (LC/MS/MS quantification of CS); assay type: cell-based, mouse; conditions: Mus musculus; for activity at 10 µM: relative to control (100%); for activity at 20 µM: relative to control without compound (100%); for IC50: read-out: IC50 value (CS production); for activity at 1 µM: compound groups B-D
Protocol: CS in each human cancer tissue sample was quantified by a method described in NPL 2. To monitor the amounts of CS and/or oxysterol generated in E0771, 3LL, EG.7-OVA, and MC38 cells irrespective of the presence or absence of SULT2B1b expression, cells of each type were seeded in a 6-well plate at 5×10^5 cells/well, and the culture supernatant and cell pellet were collected after 24 hours. Subsequently, deuterium-labeled internal standard (IS) compounds (d7-CS [[…]] and d6-25-hydroxycholesterol) were added to fractions of the culture supernatant and cell pellet, each of which was subjected to extraction with 1 mL of extraction solvent (methanol/chloroform/water=5:2:2 [v/v/v]) to extract CS and oxysterol from the culture supernatant or cell pellet.
Each sample was vigorously mixed with a vortex for 1 minute, and then ultrasonicated for 5 minutes. Thereafter, the sample was centrifuged at 16,000×g and 4° C. for 5 minutes, and the supernatant (700 μl) was collected in a clean tube. Into this, 235 μl of chloroform and 155 μl of water were added and mixed, and the resultant was then subjected to vortexing followed by centrifugation to separate into an aqueous layer and an organic layer. Subsequently, 200 μl of the lowermost layer was dried under a nitrogen flow.
The dried sample was dissolved in 50 μl of methanol, and CS and oxysterol therein were quantified by liquid chromatography-tandem mass spectrometry (LC/MS/MS) with a triple quadrupole mass spectrometer (LCMS-8060; Shimadzu Corporation) equipped with an electrospray ionization (ESI) ion source in a multiple reaction monitoring (MRM) mode.
• Column: Inertsil ODS-4 (2.1×150 mm; particle size: 3 μm; GL Sciences Inc.) • Column temperature: 40° C. • Flow rate: 0.3 ml/min • Mobile phase: (A) water/acetonitrile (1:2, v/v) containing 5 mM ammonium acetate (B) Methanol/Isopropanol (1:19, v/v) Containing 5 mM Ammonium Acetate • Gradient curve: 0 min→22 min: (B) 0%→100%, • 22 min→27 min: (B) 100%, • 27 min→27.1 min: (B) 100%→0%, • 27.1 min→30 min: (B) 0% • Injection volume: 5 μl • Mass spectrometry mode: positive and negative ion modes • Electrospray voltage: 4 kV in positive ion mode, −3.5 kV in negative ion mode • Nebulizer gas flow rate: 3.0 L/min • Drying gas flow rate: 10.0 L/min • Desolvation temperature: 250° C. • Heat block temperature: 400° C. • Detector voltage: 2.16 kV • Used were MRM mode and 2 msec of dwell time per channel.
Absolute CS and oxysterol contents were calculated from calibration curves. MRM calibration curves were prepared with chromatographic peak areas for the analytes relative to peak areas for internal standards through three times of analysis for standard solutions.
The CS production effects of test compounds (compounds 1 to 19, 21, 23, 25, and 27 to 32) were evaluated with the mouse breast cancer cell line E0771 expressing SULT2B1b (E0771-SULT cells).
Specifically, as in the above description in experimental procedure (12), E0771-SULT cells were seeded in a 6-well plate at a proportion of 5×10^5 cells/well, and cultured in the presence or absence (control) of each test compound for 24 hours. After culturing, CS generated in E0771-SULT cells was quantified by LC/MS/MS according to the description in experimental procedure (12). The CS production capacity (% activity) of cells cultured in the presence of each test compound was evaluated from the percentage relative to the CS production level (control) (100%) in E0771-SULT cells cultured in the absence of the test compound, and the CS production inhibitory effect of the test compound was evaluated.

[2] = molecular target: T1, recombinant human SULT2B1b protein (Homo sapiens, UniProt O00204); assay: SULT assay (in vitro SULT2B1b enzymatic activity measurement); assay type: biochemical; conditions: read-out: in vitro SULT2B1b assay % activity at 200 μM
T1 sequence (O00204 1-365): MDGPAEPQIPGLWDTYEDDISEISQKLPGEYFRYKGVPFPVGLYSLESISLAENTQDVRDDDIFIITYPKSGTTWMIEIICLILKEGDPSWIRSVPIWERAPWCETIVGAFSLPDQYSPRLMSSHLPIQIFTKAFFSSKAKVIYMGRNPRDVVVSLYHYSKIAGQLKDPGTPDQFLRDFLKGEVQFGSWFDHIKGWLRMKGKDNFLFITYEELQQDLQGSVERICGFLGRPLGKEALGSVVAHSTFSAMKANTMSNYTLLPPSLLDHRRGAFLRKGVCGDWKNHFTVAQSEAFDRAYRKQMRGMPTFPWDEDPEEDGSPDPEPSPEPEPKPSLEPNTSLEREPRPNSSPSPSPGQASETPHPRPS
Protocol: For screening for a SULT2B1b inhibitor, enzymatic activity measurement for SULT2B1b was carried out by a method described in a previous report (NPL 2) with slight modifications.
The reaction solution (50 μl) was composed of 1 to 5 μg of recombinant human SULT2B1b protein, 10 μM [^3H]cholesterol (approximately 4,000 dpm/pmol), 10 mM Tris-HCl (pH 7.5, containing 5 mM MgCl2) containing 0.1 mM 3′-phosphoadenosine 5′-phosphosulfate (PAPS), 0.2 mM 2-hydroxypropyl-β-cyclodextrin, and 5% (v/v) ethanol. Recombinant human SULT2B1b protein was pre-incubated with 1 μl of a test compound (final concentration: 40 or 200 μM) or DMSO (control) at room temperature for 15 minutes, 2 mM PAPS (2.5 μl) was then added to initiate reaction, the resultant was reacted at 37° C. for 15 minutes, and 0.8 ml of ethanol was added to terminate the reaction.
The solution after the reaction was subjected to thin-layer chromatography (TLC) for separation, and then to a liquid scintillation counter to quantify radiolabeled CS.
From the percentage to the amount ([…]) of radiolabeled CS generated through reaction in the absence of the test compound (DMSO) (control), the SULT2B1b activity (% activity) of SULT2B1b protein in the presence of the test compound was evaluated, and the effect of the test compound to inhibit SULT2B1b-mediated CS production (CS production inhibitory effect) was evaluated.
In enzyme assay, SULT assay was performed with use of cholenoic acid as a compound to be tested at different cholesterol and PAPS concentrations (wherein 0.5 to 1 μg of recombinant human SULT2B1b protein was used, the preincubation time and reaction time were each 10 minutes), and the results were fitted to the Michaelis-Menten equation by using Prism 9 (GraphPad Software, Inc.) to perform enzyme kinetic analysis for the inhibition by cholenoic acid.
SULT assay was performed for the compounds as test compounds by the method described in (14) of “II. Experimental procedure” in Experiment Example 1 to evaluate the SULT2B1b inhibitory effects of the compounds.

[3] = 24 h, read-out: CS production % activity at 10 μM, E0771-SULT cells, 24 hours, test compound 10 μM (Table 1)
[4] = 24 h, read-out: CS production % activity at 10 μM, E0771-SULT cells, 24 hours, third concentration column of Table 1, head again printed 10 μM
[5] = 24 h, read-out: CS production % activity at 20 μM, E0771-SULT cells, 24 hours, test compound 20 μM
[6] = 24 h, E0771-SULT cells, 24 hours, test compound 20 μM, read-out: CS production % activity at 20 μM
[7] = test compound 200 μM, relative to DMSO control (100%)
[8] = E0771-SULT cells, 24 hours, test compound 20 μM, read-out: CS production % activity at 20 μM
[9] = E0771-SULT cells, 24 hours, read-out: CS production % activity at 1 μM

| SMILES | activity at 10 µM [1, 3] [%] | activity at 10 µM [1, 4] [%] | activity at 20 µM [1, 5] [%] | IC50 [1] [µM] | IC50 ([1]; E0771-SULT cells) [µM] | activity at 200 µM [2, 7] [%] | also measured |
| --- | --- | --- | --- | --- | --- | --- | --- |
| COC(=O)CC[C@@H](C)[C@H]1CC[C@H]2[C@@H]3CC=C4C[C@@H](O)CC[C@]4(C)[C@H]3CC[C@]12C [Compound 3, methyl (R)-4-((3S,8S,9S,10R,13R,14S,17R)-3-hydroxy-10,13-dimethyl-2,3,4,7,8,9,10,11,12,13,14,15,16,17-tetradecahydro-1H-cyclopenta[a]phenanthren-17-yl)pentanoate] | 48.1 | 61.4 | 56.8 | 17.3 |  |  | activity at 200 µM [2]: 19% |
| COC(=O)CC[C@@H](C)[C@H]1CC[C@H]2[C@@H]3CC=C4C[C@@H](OC(=O)C(F)(F)F)CC[C@]4(C)[C@H]3CC[C@]12C [Compound 4, methyl (R)-4-((3S,8S,9S,10R,13R,14S,17R)-10,13-dimethyl-3-(2,2,2-trifluoroacetoxy)-2,3,4,7,8,9,10,11,12,13,14,15,16,17-tetradecahydro-1H-cyclopenta[a]phenanthren-17-yl)pentanoate] |  |  |  |  | 20 |  | activity at 10 µM ([1]; 24 h, E0771-SULT cells, 24 hours, test compound 10 μM (Table 1), read-out: CS production % activity at 10 μM): 79.2%; activity at 20 µM [1, 6]: 49.9%; activity at 10 µM ([1]; 24 h, E0771-SULT cells, 24 hours, third concentration column of Table 1, head again printed 10 μM, read-out: CS production % activity at 10 μM): 104%; activity at 200 µM [2]: 13.6% |
| CO[C@H]1CC[C@@]2(C)C(=CC[C@H]3[C@@H]4CC[C@H]([C@H](C)CCC(=O)O)[C@@]4(C)CC[C@@H]32)C1 [Compound 6, (R)-4-((3S,8S,9S,10R,13R,14S,17R)-3-methoxy-10,13-dimethyl-2,3,4,7,8,9,10,11,12,13,14,15,16,17-tetradecahydro-1H-cyclopenta[a]phenanthren-17-yl)pentanoic acid] | 74.5 | 80.7 | 70.3 | 32.4 |  | 22.9 |  |
| C[C@H](CCC(=O)N(Cc1ccccc1)Cc1ccccc1)[C@H]1CC[C@H]2[C@@H]3CC=C4C[C@@H](OC(=O)C(F)(F)F)CC[C@]4(C)[C@H]3CC[C@]12C [Compound 7, (3S,8S,9S,10R,13R,14S,17R)-17-((R)-5-(dibenzylamino)-5-oxopentan-2-yl)-10,13-dimethyl-2,3,4,7,8,9,10,11,12,13,14,15,16,17-tetradecahydro-1H-cyclopenta[a]phenanthren-3-yl 2,2,2-trifluoroacetate] | 59 | 74.6 | 57.8 | 17.3 |  | 6.4 |  |
| CCCCNC(=O)CC[C@@H](C)[C@H]1CC[C@H]2[C@@H]3CC=C4C[C@@H](OC(=O)C(F)(F)F)CC[C@]4(C)[C@H]3CC[C@]12C [Compound 8, (3S,8S,9S,10R,13R,14S,17R)-17-((R)-5-(butylamino)-5-oxopentan-2-yl)-10,13-dimethyl-2,3,4,7,8,9,10,11,12,13,14,15,16,17-tetradecahydro-1H-cyclopenta[a]phenanthren-3-yl 2,2,2-trifluoroacetate] | 70.6 | 83.6 | 60.2 | 42.5 |  | 10.7 |  |
| C#C[C@]1(O)CC[C@H]2[C@@H]3CC=C4C[C@@H](O)CC[C@]4(C)[C@H]3CC[C@@]21C [Compound 29, (3S,8R,9S,10R,13S,14S,17R)-17-ethynyl-10,13-dimethyl-2,3,4,7,8,9,10,11,12,13,14,15,16,17-tetradecahydro-1H-cyclopenta[a]phenanthrene-3,17-diol] |  |  | 45 | 11.8 |  |  | activity at 1 µM ([1]; 24 h, read-out: CS production % activity at 1 μM, E0771-SULT cells, 24 hours): 50.1% |
| C#CC1(OC(C)=O)CCC2C3CCC4=CC(=O)CCC4C3CCC21C (stereo not shown) [Compound 30, 19-norethisterone-acetate, reference compound] |  |  |  |  | 34.3 |  | activity at 20 µM [1, 8]: 61.9%; activity at 1 µM [1, 9]: 80.1% |
| C#CC1(O)CCC2C3CCC4=CC(=O)CCC4C3CCC21C (stereo not shown) [Compound 31, 19-norethindrone, reference compound] |  |  |  |  | 68.4 |  | activity at 20 µM [1, 8]: 77.5%; activity at 1 µM [1, 9]: 82.8% |
| CC1(C2CC[C@H]3[C@@H]4CC=C5C[C@@H](O)CC[C@]5(C)[C@H]4CC[C@]23C)CS1 (stereo partly drawn) [Compound 32, (3S,8S,9S,10R,13S,14S)-10,13-dimethyl-17-(2-methylthiiran-2-yl)-2,3,4,7,8,9,10,11,12,13,14,15,16,17-tetradecahydro-1H-cyclopenta[a]phenanthren-3-ol] |  |  |  |  | 12.8 |  | activity at 20 µM [1, 6]: 54.8%; activity at 1 µM ([1]; 24 h, E0771-SULT cells, 24 hours, read-out: CS production % activity at 1 μM): 49.7% |
